Source: ChEMBL document CHEMBL1201862, “PubChem BioAssay data set” (2004)
Activity calls are given as the source filed them.

Experiments:
[1] = biological target: Dual specificity protein phosphatase 3 (Homo sapiens, UniProt P51452); assay: SAR VHR1 Fluorescent Assay for In Vitro dose response studies Set 2. [Related pubchem assays (depositor defined):AID1654, AID1661, AID1878]; format: functional
[2] = biological target: T1, Tyrosine-protein phosphatase non-receptor type 7 (Homo sapiens, UniProt P35236); assay: SAR analysis of chemical inhibitors of HePTP using a Fluorescent assay - Set 2. [Related pubchem assays (depositor defined):AID1059, AID1077, AID1661, AID2085, AID521]; format: functional
T1 sequence (P35236 whole entry): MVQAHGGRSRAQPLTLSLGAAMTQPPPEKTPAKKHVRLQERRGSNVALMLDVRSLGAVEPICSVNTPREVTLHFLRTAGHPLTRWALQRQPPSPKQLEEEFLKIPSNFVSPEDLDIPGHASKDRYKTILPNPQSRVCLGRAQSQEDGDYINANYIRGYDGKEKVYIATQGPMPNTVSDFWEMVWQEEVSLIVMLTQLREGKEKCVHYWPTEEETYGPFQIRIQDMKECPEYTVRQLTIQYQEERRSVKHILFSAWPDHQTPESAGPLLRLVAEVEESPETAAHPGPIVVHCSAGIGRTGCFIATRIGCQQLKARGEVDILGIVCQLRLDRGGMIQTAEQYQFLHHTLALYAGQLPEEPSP

[3] = NIH3T3 cell viability loss – ATP luminescence, mouse fibroblasts, counter-screen, dose response (AID 2010); format: functional, cell-based;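 also: cells exposed to compound for about 90 hours before reading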
Trypsin = Trypsin (Sus scrofa, UniProt P00761); assay: trypsin protease activity blockade – biochemical, quenched peptide fluorescence, cherry-pick, selectivity assay for Rce1 protease inhibitor project, dose response (AID 488789)
Trypsin, sequence (P00761 whole entry): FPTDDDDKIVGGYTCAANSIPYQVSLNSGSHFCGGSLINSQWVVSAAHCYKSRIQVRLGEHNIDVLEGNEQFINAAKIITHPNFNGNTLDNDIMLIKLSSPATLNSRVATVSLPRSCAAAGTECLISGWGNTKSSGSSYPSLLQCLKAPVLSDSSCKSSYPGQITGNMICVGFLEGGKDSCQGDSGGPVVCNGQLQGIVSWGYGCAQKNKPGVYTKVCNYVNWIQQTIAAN

CAAX prenyl protease 2 = biological target: T2, CAAX prenyl protease 2 (Saccharomyces cerevisiae S288c, UniProt Q03530); format: biochemical
T2 sequence (Q03530 whole entry): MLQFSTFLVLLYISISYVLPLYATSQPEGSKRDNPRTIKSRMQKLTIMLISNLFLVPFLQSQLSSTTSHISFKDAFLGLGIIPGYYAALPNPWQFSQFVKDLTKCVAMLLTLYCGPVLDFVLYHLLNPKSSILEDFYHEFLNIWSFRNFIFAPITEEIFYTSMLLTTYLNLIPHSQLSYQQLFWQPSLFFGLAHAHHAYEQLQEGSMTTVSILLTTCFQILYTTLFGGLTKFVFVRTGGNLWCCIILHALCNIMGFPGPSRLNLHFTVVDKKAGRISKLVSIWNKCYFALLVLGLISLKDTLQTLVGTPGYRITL

Coagulation factor XII = biological target: T3, Coagulation factor XII (Homo sapiens, UniProt P00748); assay: activated coagulation factor XII inhibitor potency, concentration-effect curve, cell-free (AID 716); format: functional
T3 sequence (P00748 whole entry): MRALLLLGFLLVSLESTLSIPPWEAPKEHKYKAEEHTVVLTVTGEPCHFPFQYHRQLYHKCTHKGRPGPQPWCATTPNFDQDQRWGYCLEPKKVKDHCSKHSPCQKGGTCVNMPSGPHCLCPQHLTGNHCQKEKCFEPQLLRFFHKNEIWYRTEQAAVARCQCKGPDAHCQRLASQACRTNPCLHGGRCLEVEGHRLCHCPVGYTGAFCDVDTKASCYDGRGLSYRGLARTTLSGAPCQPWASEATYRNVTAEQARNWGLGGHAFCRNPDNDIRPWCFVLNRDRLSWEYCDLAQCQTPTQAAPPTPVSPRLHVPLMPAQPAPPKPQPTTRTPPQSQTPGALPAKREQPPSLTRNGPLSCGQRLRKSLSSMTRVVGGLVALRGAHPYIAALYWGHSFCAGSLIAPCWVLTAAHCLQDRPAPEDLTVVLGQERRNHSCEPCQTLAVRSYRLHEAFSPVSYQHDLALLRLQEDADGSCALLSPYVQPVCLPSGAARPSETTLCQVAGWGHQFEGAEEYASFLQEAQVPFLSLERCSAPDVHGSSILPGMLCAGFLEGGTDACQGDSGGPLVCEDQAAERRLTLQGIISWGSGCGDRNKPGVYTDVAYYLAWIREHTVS

[4] = Trypanosoma cruzi growth suppression in host cells – NIH3T3 host cells, beta-gal luminescence, confirmation (AID 2044); format: functional, cell-based;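 also: intracellular parasites grown in NIH/3T3 mouse fibroblasts as host cells; luminescent beta-galactosidase reporter signal from transgenic T. cruzi replicating inside host cells; inhibitors lower the luminescence signal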
[5] = biological target: T4, High affinity choline transporter 1 (Homo sapiens, UniProt Q9GZV3); assay: human choline transporter blockers, potency – cell-based, 5-point CRC, membrane potential dye, dose response (AID 504840); format: functional
T4 sequence (Q9GZV3 whole entry): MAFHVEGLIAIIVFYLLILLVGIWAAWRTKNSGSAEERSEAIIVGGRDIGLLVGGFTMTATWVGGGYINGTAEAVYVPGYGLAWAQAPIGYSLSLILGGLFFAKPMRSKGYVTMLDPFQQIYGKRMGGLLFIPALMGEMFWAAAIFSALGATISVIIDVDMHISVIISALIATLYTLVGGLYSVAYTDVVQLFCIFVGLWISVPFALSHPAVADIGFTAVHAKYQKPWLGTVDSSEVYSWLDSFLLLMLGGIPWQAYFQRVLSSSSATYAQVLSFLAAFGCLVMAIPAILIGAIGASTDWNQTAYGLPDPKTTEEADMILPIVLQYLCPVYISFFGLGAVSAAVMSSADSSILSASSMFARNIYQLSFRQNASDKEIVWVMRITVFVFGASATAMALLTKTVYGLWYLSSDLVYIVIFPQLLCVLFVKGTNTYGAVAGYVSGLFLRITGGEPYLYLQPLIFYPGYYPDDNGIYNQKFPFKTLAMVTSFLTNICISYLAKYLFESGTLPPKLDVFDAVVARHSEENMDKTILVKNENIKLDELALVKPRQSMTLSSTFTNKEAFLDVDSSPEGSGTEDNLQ

[6] = biological target: T4, High affinity choline transporter 1; assay: human choline transporter blockers, potency – cell-based, 10-point CRC, membrane potential dye, dose response (AID 588401); format: functional;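 also: membrane potential dye fluorescence of choline-evoked depolarization via CHT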
[7] = biological target: T5, Short transient receptor potential channel 4 (Mus musculus, UniProt Q9QUQ5); assay: calcium entry via TRPC4 opening agents – cell-based, HEK293 TRPC4/mu-opioid, Fluo-4 calcium, dose response (AID 434937); format: functional
T5 sequence (Q9QUQ5 whole entry): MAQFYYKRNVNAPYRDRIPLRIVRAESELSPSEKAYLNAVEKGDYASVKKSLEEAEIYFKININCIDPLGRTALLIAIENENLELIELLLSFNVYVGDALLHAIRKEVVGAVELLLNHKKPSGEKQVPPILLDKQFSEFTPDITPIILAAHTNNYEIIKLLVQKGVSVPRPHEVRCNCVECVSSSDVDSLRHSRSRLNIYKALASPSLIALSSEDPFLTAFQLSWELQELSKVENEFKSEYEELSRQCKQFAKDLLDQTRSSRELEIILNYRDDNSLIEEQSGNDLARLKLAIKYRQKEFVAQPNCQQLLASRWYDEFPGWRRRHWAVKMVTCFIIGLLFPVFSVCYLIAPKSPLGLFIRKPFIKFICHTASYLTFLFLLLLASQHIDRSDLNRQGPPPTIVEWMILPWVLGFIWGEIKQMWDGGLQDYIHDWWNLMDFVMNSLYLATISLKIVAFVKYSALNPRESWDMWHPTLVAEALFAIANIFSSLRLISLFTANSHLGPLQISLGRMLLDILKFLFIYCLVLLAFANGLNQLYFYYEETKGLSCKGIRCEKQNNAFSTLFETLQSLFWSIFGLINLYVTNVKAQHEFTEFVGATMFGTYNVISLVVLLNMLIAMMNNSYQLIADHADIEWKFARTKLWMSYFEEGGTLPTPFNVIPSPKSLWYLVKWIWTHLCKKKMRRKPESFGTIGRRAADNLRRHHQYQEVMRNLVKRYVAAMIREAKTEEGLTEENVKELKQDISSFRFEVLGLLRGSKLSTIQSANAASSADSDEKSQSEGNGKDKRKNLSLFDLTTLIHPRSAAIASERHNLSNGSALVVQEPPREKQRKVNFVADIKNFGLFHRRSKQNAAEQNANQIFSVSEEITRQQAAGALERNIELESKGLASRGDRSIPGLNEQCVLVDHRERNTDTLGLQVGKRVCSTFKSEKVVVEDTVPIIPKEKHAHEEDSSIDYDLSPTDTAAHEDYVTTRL

Troponin, cardiac muscle = Troponin, cardiac muscle (Homo sapiens, UniProt P19429+P45379+P63316); assay: Fluorescence-based biochemical high throughput dose response assay for activators of the calcium sensitivity of cardiac Regulated Thin Filaments (RTF). [Related pubchem assays (depositor defined):AID493008, AID493018, AID504382, AID504383]; format: protein-complex assay
[8] = luciferase reporter signal suppression in cells – H4 neuroglioma cells, luminescence, dose response (AID 1990); format: functional, cell-based
Cytochrome P450 2C9 = Cytochrome P450 2C9 (Homo sapiens, UniProt P11712)
Cytochrome P450 2C9, sequence (P11712 whole entry): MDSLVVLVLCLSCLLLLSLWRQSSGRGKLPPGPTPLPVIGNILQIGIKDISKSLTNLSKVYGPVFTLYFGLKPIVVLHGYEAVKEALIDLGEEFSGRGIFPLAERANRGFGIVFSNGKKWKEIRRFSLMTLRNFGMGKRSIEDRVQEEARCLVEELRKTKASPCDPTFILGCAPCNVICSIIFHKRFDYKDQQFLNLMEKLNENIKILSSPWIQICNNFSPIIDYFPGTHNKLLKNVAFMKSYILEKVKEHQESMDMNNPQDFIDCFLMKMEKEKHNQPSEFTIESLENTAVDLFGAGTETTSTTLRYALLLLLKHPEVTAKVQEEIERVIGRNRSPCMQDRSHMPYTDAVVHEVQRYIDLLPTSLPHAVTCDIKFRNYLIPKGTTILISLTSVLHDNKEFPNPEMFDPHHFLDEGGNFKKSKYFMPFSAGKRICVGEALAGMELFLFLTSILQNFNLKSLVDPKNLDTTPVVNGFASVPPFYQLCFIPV

[9] = Luminescence Cell-Based Dose Response HTS to Identify Inhibitors of 5'UTR Stem-Loop Driven Prion Protein mRNA Translation in H4 Neuroglioblastoma Cells. [Related pubchem assays: 1827 (Project Summary), 1813 (Primary HTS)]; format: functional
[10] = Luminescence Cell-Based Dose HTS Response to Identify Inhibitors of 5'UTR Stem-Loop Driven Prion Protein mRNA Translation in H4-C Neuroglioblastoma Cells. [Related pubchem assays (depositor defined):AID1814, AID1827]; format: functional
[11] = alpha-synuclein stem-loop luciferase translation blockers – H4 neuroglioma cells, luminescence, confirmation (AID 1988); format: functional, cell-based
[12] = Luminescence Cell-Based Dose Confirmation HTS to Identify Inhibitors of 5'UTR Stem-Loop Driven Alpha-Synuclein mRNA Translation in H4 Neuroglioblastoma Cells. [Related pubchem assays: 1827 (Project Summary), 1813 (Primary HTS)]; format: functional
[13] = Luminescence Cell-Based Dose Response HTS to Identify Activators of Luciferase Translation or Activity in H4-C Neuroglioblastoma Cells. [Related pubchem assays: 1829 (Project Summary), 1814 (Primary HTS)]; format: functional
[14] = HEK-293T viability loss after treatment – luminescence, T-cell screen hits, cytotoxicity control for TCR NF-kB inhibitor project, dose response (AID 489026); format: functional, cell-based;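 also: cells exposed to compound about 14 hours before the viability readout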
[15] = Luminescence Cell-Based Dose Response HTS to Identify Activators of 5'UTR Stem-Loop Driven Prion Protein mRNA Translation in H4-C Neuroglioblastoma Cells. [Related pubchem assays: 1829 (Project Summary), 1814 (Primary HTS)]; format: functional
[16] = Luminescence Cell-Based Dose Response HTS to Identify Inhibitors of Luciferase Translation or Activity in H4-C Neuroglioblastoma Cells. [Related pubchem assays: 1813 (Primary HTS), 1827 (Project Summary)]; format: functional
[17] = Luminescence Cell-Based Dose Retest to Confirm Activators of 5'UTR Stem-Loop Driven Alpha-Synuclein mRNA Translation in H4 Neuroglioblastoma Cells. [Related pubchem assays (depositor defined):AID1813, AID1829]; format: functional

Dual specificity protein phosphatase 3, sequence (P51452 whole entry): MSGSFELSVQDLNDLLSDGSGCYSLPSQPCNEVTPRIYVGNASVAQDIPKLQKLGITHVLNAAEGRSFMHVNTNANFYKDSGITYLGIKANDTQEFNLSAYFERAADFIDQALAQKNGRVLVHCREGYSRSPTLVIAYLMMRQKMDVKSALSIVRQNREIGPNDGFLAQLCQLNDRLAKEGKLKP

## COc1cc(C(=S)NCc2ccc(F)cc2)ccc1O
[1]
  IC50: 99.5 µM (inactive)
[2]
  IC50: > 100 µM (inactive)

## COc1ccc(C)cc1NC(=O)CCC(=O)Nc1ccc2nc(N3CCN(C)CC3)cc(C)c2c1
[3]
  EC50: 8.73 µM (active)
Trypsin
  AC50: 19.7 µM (active)
CAAX prenyl protease 2
  AC50: 16.4 µM (active)
Coagulation factor XII
  IC50: > 50 µM (inactive)
[4]
  EC50: 0.635 µM (active)

## CC(=O)OCC[N+](C)(C)C [ACETYLCHOLINE CHLORIDE]
[5]
  IC50: 6.26 µM (active)
[6]
  IC50: 0.566 µM (active)
[7]
  EC50: 0.421 µM (active)
Troponin, cardiac muscle
  EC50: > 71.4 µM (inactive)

## O=C(COc1ccccc1-c1ccccc1)N/N=C/c1cccc2ccccc12
[8]
  EC50: 11.5 µM (active)
Cytochrome P450 2C9
  AC50: 20 µM (inconclusive)
[9]
  EC50: > 120 µM (not active)
[10]
  EC50: 1.76 µM (active)
[11]
  EC50: < 0.195 µM (active)
[12]
  EC50: 1.74 µM (active)
[13]
  EC50: 0.921 µM (inconclusive)
[14]
  IC50: > 80 µM (inactive)
[15]
  EC50: 0.695 µM (inconclusive)
[16]
  EC50: 0.85 µM (active)
[17]
  EC50: 1.84 µM (inconclusive)
